From PubChem BioAssay AID449772 (The Scripps Research Institute Molecular Screening Center, 2010)
The source made the active and inactive calls.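 How the source made its calls: active means mass spectrometry shows the compound covalently bound to the catalytic cysteine of glutathione transferase omega 1; inactive means no covalent bond to that cysteine seen.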

Biological target: Glutathione S-transferase omega-1 (Homo sapiens) (UniProt P78417)
Experiment: covalent labeling of GSTO1 active site, late-stage follow-up, mechanism study, biophysical, LC-MS/MS (AID 449772)
Conditions: purified GSTO1, LC-MS/MS active-site cysteine labeling

Sequence of Glutathione S-transferase omega-1 (Homo sapiens) (P78417 whole entry, looked up): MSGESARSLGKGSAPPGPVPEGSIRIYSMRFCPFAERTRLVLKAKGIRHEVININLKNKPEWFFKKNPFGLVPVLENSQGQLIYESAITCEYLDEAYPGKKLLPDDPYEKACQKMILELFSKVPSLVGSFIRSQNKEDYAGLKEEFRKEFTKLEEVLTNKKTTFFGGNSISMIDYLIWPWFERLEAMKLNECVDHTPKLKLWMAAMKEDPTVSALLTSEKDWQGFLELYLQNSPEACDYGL

outcome | SMILES
active | COc1ccc(C(C(=O)NC2CCCCC2)N(C(=O)CCl)c2cccc(Cl)c2)cc1 (configuration not stated)
active | O=C(NC1CCCCC1)C(c1cccnc1)N(C(=O)CCl)c1ccc(F)cc1 (configuration not stated)
